According to ChEMBL document CHEMBL4765377, “Design, synthesis, and evaluation of amphiphilic sofalcone derivatives as potent Gram-positive antibacterial agents” (Eur J Med Chem, 2020):
Converted amounts (≈) assume the structure as drawn. The source made the active and inactive calls. The rule behind the calls is not given here.

What was measured:
[1] = test system: Staphylococcus aureus; assay: Antibacterial activity against Staphylococcus aureus ATCC 29213 infected in C57BL6 mouse assessed as reduction in bacterial burden at 6.56 mmol/L, administered topically at 2 hrs interval for 3 days relative to control; format: functional; parameters: scale not given: the % may be the effect or the level left; conditions: time 3 day
[2] = Cytotoxicity against mouse corneal fibroblast cells assessed as viability at 6.25 ug/ml after 24 hrs by CCK8 assay relative to control; format: cell-based; conditions: at 6.25 µg/mL, read-out: Activity
[3] = test system: Cell membrane; assay: Disruption of bacterial cell membrane in methicillin-resistant Staphylococcus aureus NCTC10442 measured for 1 hr by SYTOX green staining based assay
[4] = Cytotoxicity against mouse corneal fibroblast cells assessed as viability at 25 ug/ml after 24 hrs by CCK8 assay relative to control; format: cell-based; conditions: at 25 µg/mL, read-out: Activity
[5] = test system: Staphylococcus aureus; assay: Antibacterial activity against Staphylococcus aureus ATCC 29213 assessed as reduction in bacterial growth at 0.5 time of MIC after 14 days passage by CLSI based broth micro dilution method; format: functional, organism-based; conditions: time 14.0 day
[6] = test system: Escherichia coli; assay: Antibacterial activity against Escherichia coli ATCC 25922 assessed as reduction in bacterial growth after 24 hrs in presence of sodium ion by CLSI based broth micro dilution method; format: functional
[7] = Cytotoxicity against human MDA-MB-231 cells assessed as viability at 25 ug/ml after 24 hrs by CCK8 assay relative to control; format: cell-based; conditions: at 25 µg/mL, read-out: Activity
[8] = test system: Staphylococcus aureus; assay: Bactericidal activity against Staphylococcus aureus ATCC 29213 assessed as reduction in bacterial load at 8 time of MIC concentration preincubated for 30 mins followed by compound washout further subculturing and measured after 24 hrs by time-kill assay; format: functional; conditions: 0.5 h
[9] = test system: Staphylococcus aureus; assay: Antibacterial activity against Staphylococcus aureus ATCC 29213 assessed as reduction in bacterial growth after 24 hrs by CLSI based broth micro dilution method; format: functional
[10] = test system: Staphylococcus aureus; assay: Bactericidal activity against Staphylococcus aureus ATCC 29213 assessed as reduction in bacterial load at 4 time of MIC concentration preincubated for 60 mins followed by compound washout further subculturing and measured after 24 hrs by time-kill assay; format: functional; conditions: 1 h
[11] = Cytotoxicity against mouse NCTC clone 929 cells assessed as viability at 12.5 ug/ml after 24 hrs by CCK8 assay relative to control; format: cell-based; conditions: at 12.5 µg/mL, read-out: Activity
[12] = test system: Cell membrane; assay: Disruption of bacterial cell membrane in Staphylococcus aureus ATCC 29213 measured for 1 hr by SYTOX green staining based assay
[13] = test system: Cell membrane; assay: Disruption of bacterial cell membrane in Staphylococcus aureus ATCC 29213 at 8 times of MIC measured for 2 hr by propidium iodide and SYTO9 dye based LIVE/DEAD bacterial viability assay
[14] = test system: Escherichia coli; assay: Antibacterial activity against Escherichia coli ATCC 25922 assessed as reduction in bacterial growth after 24 hrs in presence of magnesium ion by CLSI based broth micro dilution method; format: functional
[15] = test system: Staphylococcus aureus; assay: Bactericidal activity against Staphylococcus aureus ATCC 29213 assessed as reduction in bacterial load at MIC concentration preincubated for 120 mins followed by compound washout further subculturing and measured after 24 hrs by time-kill assay; format: functional; conditions: 2 h
[16] = test system: Staphylococcus aureus; assay: Antibacterial activity against Staphylococcus aureus ATCC 29213 assessed as reduction in bacterial growth after 24 hrs in presence of calcium ion by CLSI based broth micro dilution method; format: functional
[17] = test system: Staphylococcus aureus; assay: Antibacterial activity against methicillin-resistant Staphylococcus aureus NCTC10442 assessed as reduction in bacterial growth after 24 hrs by CLSI based broth micro dilution method; format: functional
[18] = test system: Staphylococcus aureus; assay: Antibacterial activity against Staphylococcus aureus ATCC 29213 infected in C57BL6 mouse assessed as reduction in bacterial load at 6.56 mmol/L, administered topically at 2 hrs interval for 3 days; format: functional; conditions: time 3 day
[19] = test system: Staphylococcus aureus; assay: Antibacterial activity against methicillin-resistant Staphylococcus aureus N315 assessed as reduction in bacterial growth after 24 hrs in presence of sodium ion by CLSI based broth micro dilution method; format: functional
[20] = test system: Staphylococcus aureus; assay: Antibacterial activity against Staphylococcus aureus ATCC 29213 assessed as reduction in bacterial growth after 24 hrs in presence of sodium ion by CLSI based broth micro dilution method; format: functional
[21] = test system: Staphylococcus aureus; assay: Antibacterial activity against methicillin-resistant Staphylococcus aureus NCTC10442 assessed as reduction in bacterial growth after 24 hrs in presence of sodium ion by CLSI based broth micro dilution method; format: functional
[22] = test system: Staphylococcus aureus; assay: Antibacterial activity against Staphylococcus aureus ATCC 29213 assessed as reduction in bacterial growth after 24 hrs in presence of magnesium ion by CLSI based broth micro dilution method; format: functional
[23] = Cytotoxicity against mouse NCTC clone 929 cells assessed as viability at 6.25 ug/ml after 24 hrs by CCK8 assay relative to control; format: cell-based; conditions: at 6.25 µg/mL, read-out: Activity
[24] = test system: Staphylococcus aureus; assay: Antibacterial activity against methicillin-resistant Staphylococcus aureus NCTC10442 assessed as reduction in bacterial growth after 24 hrs in presence of potassium ion by CLSI based broth micro dilution method; format: functional
[25] = test system: Staphylococcus aureus; assay: Antibacterial activity against methicillin-resistant Staphylococcus aureus N315 assessed as reduction in bacterial growth after 24 hrs in presence of magnesium ion by CLSI based broth micro dilution method; format: functional
[26] = test system: Escherichia coli; assay: Antibacterial activity against Escherichia coli ATCC 25922 assessed as reduction in bacterial growth after 24 hrs in presence of potassium ion by CLSI based broth micro dilution method; format: functional
[27] = test system: Staphylococcus aureus; assay: Antibacterial activity against methicillin-resistant Staphylococcus aureus N315 assessed as reduction in bacterial growth after 24 hrs in presence of potassium ion by CLSI based broth micro dilution method; format: functional
[28] = test system: Staphylococcus aureus; assay: Antibacterial activity against methicillin-resistant Staphylococcus aureus NCTC10442 assessed as reduction in bacterial growth after 24 hrs in presence of magnesium ion by CLSI based broth micro dilution method; format: functional
[29] = test system: Staphylococcus aureus; assay: Antibacterial activity against methicillin-resistant Staphylococcus aureus N315 assessed as reduction in bacterial growth after 24 hrs by CLSI based broth micro dilution method; format: functional
[30] = test system: Staphylococcus aureus; assay: Bactericidal activity against Staphylococcus aureus ATCC 29213 assessed as reduction in bacterial load at 2 time of MIC concentration preincubated for 120 mins followed by compound washout further subculturing and measured after 24 hrs by time-kill assay; format: functional; conditions: 2 h
[31] = Cytotoxicity against human MDA-MB-231 cells assessed as viability at 6.25 ug/ml after 24 hrs by CCK8 assay relative to control; format: cell-based; conditions: at 6.25 µg/mL, read-out: Activity
[32] = test system: Escherichia coli; assay: Antibacterial activity against Escherichia coli ATCC 25922 assessed as reduction in bacterial growth after 24 hrs by CLSI based broth micro dilution method; format: functional
[33] = test system: Staphylococcus aureus; assay: Antibacterial activity against methicillin-resistant Staphylococcus aureus N315 assessed as reduction in bacterial growth after 24 hrs in presence of calcium ion by CLSI based broth micro dilution method; format: functional
[34] = test system: Escherichia coli; assay: Antibacterial activity against Escherichia coli ATCC 25922 assessed as reduction in bacterial growth after 24 hrs in presence of calcium ion by CLSI based broth micro dilution method; format: functional
[35] = Cytotoxicity against mouse corneal fibroblast cells assessed as viability at 12.5 ug/ml after 24 hrs by CCK8 assay relative to control; format: cell-based; conditions: at 12.5 µg/mL, read-out: Activity
[36] = Hemolytic activity in rabbit RBC after 60 mins; format: ADME, cell-based, Oryctolagus cuniculus, Erythrocyte; conditions: rabbit red blood cells (erythrocytes)
[37] = Cytotoxicity against mouse NCTC clone 929 cells assessed as viability at 25 ug/ml after 24 hrs by CCK8 assay relative to control; format: cell-based; conditions: at 25 µg/mL, read-out: Activity
[38] = test system: Staphylococcus aureus; assay: Antibacterial activity against methicillin-resistant Staphylococcus aureus NCTC10442 assessed as reduction in bacterial growth after 24 hrs in presence of calcium ion by CLSI based broth micro dilution method; format: functional
[39] = Cytotoxicity against mouse NCTC clone 929 cells assessed as viability at 3.125 ug/ml after 24 hrs by CCK8 assay relative to control; format: cell-based; conditions: at 3.125 µg/mL, read-out: Activity
[40] = Cytotoxicity against human MDA-MB-231 cells assessed as viability at 12.5 ug/ml after 24 hrs by CCK8 assay relative to control; format: cell-based; conditions: at 12.5 µg/mL, read-out: Activity
[41] = test system: Staphylococcus aureus; assay: Antibacterial activity against Staphylococcus aureus ATCC 29213 assessed as reduction in bacterial growth after 24 hrs in presence of potassium ion by CLSI based broth micro dilution method; format: functional
[42] = Cytotoxicity against mouse corneal fibroblast cells assessed as viability at 3.125 ug/ml after 24 hrs by CCK8 assay relative to control; format: cell-based; conditions: at 3.125 µg/mL, read-out: Activity
[43] = Cytotoxicity against human MDA-MB-231 cells assessed as viability at 3.125 ug/ml after 24 hrs by CCK8 assay relative to control; format: cell-based; conditions: at 3.125 µg/mL, read-out: Activity

SMILES: CC(C)=CCOc1ccc(/C=C/C(=O)c2ccc(OCC=C(C)C)cc2OCC(=O)N[C@@H](CCCNC(=N)N)C(=O)N[C@@H](CCCNC(=N)N)C(N)=O)cc1
- Activity [1]: >99.99%
- viability at 24 h, 6.25 ug/ml [2]: 76.3%
- Activity [3]: Dose-dependent effect
- viability at 24 h, 25 ug/ml [4]: 59.9%
- Activity [5]: Active
- MIC [6]: 12.5 µg/mL
- viability at 24 h, 25 ug/ml [7]: 67.7%
- log(activity) [8]: 3.75
- MIC [9]: 1.56 µg/mL (≈ 2.05 µM)
- log(activity) [10]: 3.25
- viability at 24 h, 12.5 ug/ml [11]: 69.9%
- Activity [12]: Dose-dependent effect
- Activity [13]: Active
- MIC [14]: 6.25 µg/mL
- log(activity) [15]: 2.6
- MIC [16]: 1.56 µg/mL
- MIC [17]: 1.56 µg/mL (≈ 2.05 µM)
- log(activity) [18]: 4.34
- MIC [19]: 1.56 µg/mL
- MIC [20]: 1.56 µg/mL
- MIC [21]: 1.56 µg/mL
- MIC [22]: 1.56 µg/mL
- viability at 24 h, 6.25 ug/ml [23]: 79%
- MIC [24]: 1.56 µg/mL
- MIC [25]: 1.56 µg/mL
- MIC [26]: 6.25 µg/mL
- MIC [27]: 1.56 µg/mL
- MIC [28]: 1.56 µg/mL
- MIC [29]: 1.56 µg/mL (≈ 2.05 µM)
- log(activity) [30]: 2.76
- viability at 24 h, 6.25 ug/ml [31]: 89.3%
- MIC [32]: 6.25 µg/mL (≈ 8.2 µM)
- MIC [33]: 1.56 µg/mL
- MIC [34]: 6.25 µg/mL
- viability at 24 h, 12.5 ug/ml [35]: 64.2%
- HC50 at 1 h [36]: 276 µg/mL
- viability at 24 h, 25 ug/ml [37]: 55.2%
- MIC [38]: 1.56 µg/mL
- viability at 24 h, 3.125 ug/ml [39]: 82%
- viability at 24 h, 12.5 ug/ml [40]: 84.8%
- MIC [41]: 1.56 µg/mL
- viability at 24 h, 3.125 ug/ml [42]: 98%
- viability at 24 h, 3.125 ug/ml [43]: 95.6%
